# Patent US9284319B2, “Heterocyclyl aminoimidazopyridazines” (BAYER INTELLECTUAL PROPERTY GMBH, priority 2011, dated 2016)
# Legend:
# [1] = molecular target: T1, human full-length MKNK1 (Homo sapiens (Human), UniProt Q9BUB5, T344D); assay: MKNK1 kinase assay (TR-FRET); assay type: biochemical; conditions: ATP 10 μM final; 15 min preincubation with enzyme
# Description: MKNK1-inhibitory activity of compounds of the present invention was quantified employing the MKNK1 TR-FRET assay as described in the following paragraphs.
# As substrate for the kinase reaction the biotinylated peptide biotin-Ahx-[…] (C-terminus in amide form) was used which can be purchased e.g. form the company Biosyntan (Berlin-Buch, Germany).
# (§1) For the assay 50 nL of a 100 fold concentrated solution of the test compound in DMSO was pipetted into a black low volume 384 well microtiter plate (Greiner Bio-One, Frickenhausen, Germany), 2 μL of a solution of MKNK1 in aqueous assay buffer [50 mM HEPES pH 7.5, 5 mM magnesium chloride, 1.0 mM dithiothreitol, 0.005% (v/v) Nonidet-P40 (Sigma)] was added and the mixture was incubated for 15 min at 22° C. to allow pre-binding of the test compounds to the enzyme before the start of the kinase reaction. Then the kinase reaction was started by the addition of 3 μL of a solution of adenosine-tri-phosphate (ATP, 16.7 μM=>final conc. in the 5 μL assay volume is 10 μM) and substrate (0.1 μM=>final conc. in the 5 μL assay volume is 0.06 μM) in assay buffer and the resulting mixture was incubated for a reaction time of 45 min at 22° C. The concentration of MKNK1 was adjusted depending of the activity of the enzyme lot and was chosen appropriate to have the assay in the linear range, typical concentrations were in the range of 0.05 μg/mL. The reaction was stopped by the addition of 5 μL of a solution of TR-FRET detection reagents (5 nM streptavidine-XL665 [Cisbio Bioassays, Codolet, France] and 1 nM anti-ribosomal protein S6 (pSer236)-antibody from Invitrogen [#44921G] and 1 nM LANCE EU-W1024 labeled ProteinG [Perkin-Elmer, product no. AD0071]) in an aqueous EDTA-solution (100 mM EDTA, 0.1% (w/v) bovine serum albumin in 50 mM HEPES pH 7.5).
# (§2) The resulting mixture was incubated for 1 h at 22° C. to allow the formation of complex between the phosphorylated biotinylated peptide and the detection reagents. Subsequently the amount of phosphorylated substrate was evaluated by measurement of the resonance energy transfer from the Eu-chelate to the streptavidine-XL. Therefore, the fluorescence emissions at 620 nm and 665 nm after excitation at 350 nm were measured in a TR-FRET reader, e.g. a Rubystar (BMG Labtechnologies, Offenburg, Germany) or a Viewlux (Perkin-Elmer). The ratio of the emissions at 665 nm and at 622 nm was taken as the measure for the amount of phosphorylated substrate.
# [2] = molecular target: T1, human full-length MKNK1; assay: MKNK1 kinase high ATP assay (TR-FRET); assay type: biochemical; conditions: ATP 2 mM final; 15 min preincubation with enzyme
# Description: MKNK1 Kinase High ATP Assay
# MKNK1-inhibitory activity at high ATP of compounds of the present invention after their preincubation with MKNK1 was quantified employing the TR-FRET-based MKNK1 high ATP assay as described in the following paragraphs.
# As substrate for the kinase reaction the biotinylated peptide biotin-Ahx-[…] (C-terminus in amide form) was used, which can be purchased e.g. from the company Biosyntan (Berlin-Buch, Germany).
# as §1, with “3.3 mM=>final” for “16.7 μM=>final”, “2 mM)” for “10 μM)”, “30” for “45”, “0.003” for “0.05”
# as §2
# T1 sequence (Q9BUB5 other isoform, or with tags, fused parts or gaps T344D): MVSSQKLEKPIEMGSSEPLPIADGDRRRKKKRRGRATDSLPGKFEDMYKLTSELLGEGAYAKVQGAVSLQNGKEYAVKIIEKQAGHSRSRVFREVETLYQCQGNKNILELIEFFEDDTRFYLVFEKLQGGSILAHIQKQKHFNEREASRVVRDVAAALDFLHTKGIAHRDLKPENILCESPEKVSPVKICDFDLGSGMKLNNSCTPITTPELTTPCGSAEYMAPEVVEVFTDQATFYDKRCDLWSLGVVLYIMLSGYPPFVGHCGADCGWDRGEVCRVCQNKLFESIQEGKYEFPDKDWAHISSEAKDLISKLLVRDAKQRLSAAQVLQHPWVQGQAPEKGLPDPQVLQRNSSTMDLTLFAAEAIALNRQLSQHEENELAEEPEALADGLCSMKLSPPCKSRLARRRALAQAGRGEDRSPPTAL
Compound,IC50 [1],IC50 [2]
"OC[C@@H]1CCN(c2ccc3ncc(-c4cc5ccccc5o4)n3n2)C1 [Example 7, {(3R)-1-[3-(1-Benzofuran-2-yl)imidazo[1,2-b]pyridazin-6-yl]pyrrolidin-3-yl}methanol]",14 nM,4 nM
"OCC1CCCN(c2ccc3ncc(-c4cc5ccccc5o4)n3n2)C1 (stereo not drawn) [Example 5, {1-[3-(1-Benzofuran-2-yl)imidazo[1,2-b]pyridazin-6-yl]piperidin-3-yl}methanol]",37 nM,13 nM
"OC[C@H]1CCN(c2ccc3ncc(-c4cc5ccccc5o4)n3n2)C1 [Example 10, {(3S)-1-[3-(1-Benzofuran-2-yl)imidazo[1,2-b]pyridazin-6-yl]pyrrolidin-3-yl}methanol]",20 nM,
"OC[C@@H]1CCCN1c1ccc2ncc(-c3cc4ccccc4o3)n2n1 [Example 1, {(2S)-1-[3-(1-Benzofuran-2-yl)imidazo[1,2-b]pyridazin-6-yl]pyrrolidin-2-yl}methanol]",19 nM,7 nM
"O[C@@H]1CCN(c2ccc3ncc(-c4cc5ccccc5o4)n3n2)C1 [Example 9, (3R)-1-[3-(1-Benzofuran-2-yl)imidazo[1,2-b]pyridazin-6-yl]pyrrolidin-3-ol]",15 nM,
"OC1CN(c2ccc3ncc(-c4cc5ccccc5o4)n3n2)C1 [Example 6, 1-[3-(1-Benzofuran-2-yl)imidazo[1,2-b]pyridazin-6-yl]azetidin-3-ol]",33 nM,12 nM
"O[C@H]1CCN(c2ccc3ncc(-c4cc5ccccc5o4)n3n2)C1 [Example 8, (3S)-1-[3-(1-Benzofuran-2-yl)imidazo[1,2-b]pyridazin-6-yl]pyrrolidin-3-ol]",19 nM,15 nM
"OC[C@H]1CCCN1c1ccc2ncc(-c3cc4ccccc4o3)n2n1 [Example 2, {(2R)-1-[3-(1-Benzofuran-2-yl)imidazo-[1,2-b]-pyridazin-6-yl]pyrrolidin-2-yl}-methanol]",42 nM,22 nM
"OC1CCN(c2ccc3ncc(-c4cc5ccccc5o4)n3n2)C1 (stereo not drawn) [Example 3, 1-[3-(1-Benzofuran-2-yl)imidazo[1,2-b]pyridazin-6-yl]pyrrolidin-3-ol]",17 nM,6 nM
"O[C@@H]1CCCN(c2ccc3ncc(-c4cc5ccccc5o4)n3n2)C1 [Example 4, (3R)-1-[3-(1-Benzofuran-2-yl)imidazo[1,2-b]pyridazin-6-yl]piperidin-3-ol]",44 nM,15 nM
